# Measured values published in patent US20050277161A1, “Phosphopeptide antigens associated with MHC molecules” (priority 2004, published 2005).
# Non-standard residues stand in square brackets, D forms with d. No end group written: not given here. pS = N[C@@H](COP(=O)(O)O)C(=O)O
# Tested on: COV413.AAD.A4 ovarian carcinoma, DM331.AAD.A4 and SLM2.AAD.A1 melanomas, MCF7.AAD.A2 and MDAMB231.AAD breast carcinomas, and JY EBV-BLCL
# Experiment: Recognition of naturally processed phosphopeptides on cancer cells by phosphopeptide-specific CTL (murine IFNγ ELISA)
# Type: cell-based
# Conditions: for recognition of the phosphopeptide on cancer cell lines by phosphopeptide-specific CTL (murine IFNγ in supernatant): murine CTL lines 50,000/well incubated 24 hours with 25,000 cancer cells/well, ovarian carcinoma, melanoma and breast carcinoma lines; for recognition of the phosphopeptide on the control cell line by phosphopeptide-specific CTL (murine IFNγ in supernatant): murine CTL lines 50,000/well incubated 24 hours with 25,000 cells/well, control JY EBV-BLCL
# Method: FIG. 1, comprising FIGS. 1A and 1B, is a graphic illustration of the recognition of naturally processed and presented phosphorylated peptides on cancer cells by the phosphopeptide-specific CTL. Phosphopeptide-specific CTL were incubated with the following cancer cell lines or EBV-transformed B lymphoblastoid cell lines (BLCL): COV413.AAD.A4 ovarian carcinoma, DM331 .AAD.A4 and SLM2.AAD.A1 melanomas, MCF7.AAD.A2 and MDAMB231.AAD breast carcinomas, and JY EBV-BLCL. Supernatants were harvested and evaluated for the presence of murine IFNγ (produced by murine CTL lines). […] The ordinate indicates murine IFNγ in pg/ml. The abscissa indicates each cell line.
# CTL specific for two of the antigen peptides were generated by long term culture with the peptides. Two CTL lines specific for the antigen peptide GLLGpSPVRA, lines 6850 and 6960, SEQ ID NO: 13, and two CTL lines specific for the antigen peptide RVApSPTSGV, SEQ ID NO: 14, lines 5183 and 63 were used to detect these two antigen peptides on cancer cells. The phosphopeptide-specific CTL (50,000 CTL/well) were incubated 24 hours with the following cancer cell lines or EBV-transformed B lymphoblastoid cell lines (BLCL) (25,000 cells/well): COV413.AAD.A4 ovarian carcinoma, DM331.AAD.A4 and SLM2.AAD.A1 melanomas, MCF7.AAD.A2 and MDAMB231.AAD breast carcinomas, and JY EBV-BLCL. Supernatants were harvested 24 hours later and evaluated for the presence of murine IFNγ (produced by murine CTL lines) by ELISA (eBioscience Ready-Set-go murine IFNγ ELISA kit).
substance,measurement,value
GLLGpSPVRA (GLLG[pS]PVRA; listed as Homo sapiens) [phosphopeptide from CDC25b:p63; HLA-A2.1],recognition of the phosphopeptide on cancer cell lines by phosphopeptide-specific CTL (murine IFNγ in supernatant),recognize the phosphopeptide on all the cancer cell lines
same,recognition of the phosphopeptide on the control cell line by phosphopeptide-specific CTL (murine IFNγ in supernatant),not the control cell line
RVApSPTSGV (RVA[pS]PTSGV; listed as Homo sapiens) [phosphopeptide from Insulin receptor substrate-2; HLA-A2.1],recognition of the phosphopeptide on cancer cell lines by phosphopeptide-specific CTL (murine IFNγ in supernatant),recognize the phosphopeptide on all the cancer cell lines
same,recognition of the phosphopeptide on the control cell line by phosphopeptide-specific CTL (murine IFNγ in supernatant),not the control cell line
